Experimental data published in ChEMBL document CHEMBL1123971, “Synthesis, platelet aggregation inhibitory activity, and in vivo antithrombotic activity of new 1,4-dihydropyridines” (J Med Chem, 1988).
Where “and” joins values, the source holds several entries; their conditions need not be identical. Equal entries are not always repeated.

Experiments:
Assay type in all cases: functional
[1] = organism: Mus musculus; assay: Dose required to protect 50% of tested mice against experimental antithrombosis.
[2] = organism: Mus musculus; assay: Effective dose of the compound required to protect […] tested mice against experimental antithrombosis
[3] = organism: Oryctolagus cuniculus; assay: Effect on 35 mM K+-induced contraction on rabbit aorta at a dose of 10e-8 mol/L
[4] = organism: Oryctolagus cuniculus; assay: Effect on 35 mM K+-induced contraction on rabbit aorta at a dose of 10e-9 mol/L
[5] = organism: Oryctolagus cuniculus; assay: Effect on 35 mM K+-induced contraction on rabbit aorta at a dose of 3*10e-9 mol/L
[6] = organism: Oryctolagus cuniculus; assay: Effect on 35 mM K+-induced contraction on rabbit aorta at a dose of 10e-7 mol/L
[7] = organism: Oryctolagus cuniculus; assay: Effect on 35 mM K+-induced contraction on rabbit aorta at a dose of 3*10e-8 mol/L
[8] = organism: Cavia porcellus; assay: Effect on guinea pig artia (beats/min), at the a dose of 0 M
[9] = organism: Cavia porcellus; assay: Effect on guinea pig artia (beats/min), at the a dose of 10e-7 M
[10] = organism: Cavia porcellus; assay: Effect on guinea pig artia (beats/min), at the a dose of 10e-9 M
[11] = organism: Cavia porcellus; assay: Effect on guinea pig artia (beats/min), at the a dose of 10e-8 M
[12] = organism: Cavia porcellus; assay: Effect on guinea pig artia (beats/min), at the a dose of 10e-6 M

## CCCCC1C(C(=O)OCCN2C(=O)c3ccccc3S2(=O)=O)=C(C)N=C(C)/C1=C(/O)OC (stereo not given)
[1]
  ED50: 78.4 µmol/kg and 37.3 mg/kg

## CO/C(O)=C1\C(C)=NC(C)=C(C(=O)OCN2C(=O)c3ccccc3S2(=O)=O)C1C (stereo not given)
[1]
  ED50: > 220 µmol/kg and > 100 mg/kg

## CO/C(O)=C1\C(C)=NC(C)=C(C(=O)OCCN2C(=O)c3ccccc3S2(=O)=O)C1C (stereo not given)
[1]
  ED50: 138 µmol/kg and 59.9 mg/kg

## CC1=NC(C)=C(C(=O)OCCNC(=O)c2ccccc2O)C(C)/C1=C(\O)OCCN1C(=O)c2ccccc2S1(=O)=O (stereo not given)
[1]
  ED50: 51.4 µmol/kg and 30 mg/kg

## CCO/C(O)=C1\C(C)=NC(C)=C(C(=O)OCN2C(=O)c3ccccc3S2(=O)=O)C1C (stereo not given)
[1]
  ED50: 134 µmol/kg and 58.3 mg/kg

## CC(=O)Oc1ccccc1C(=O)O [ASPIRIN]
[2]
  ED30: 166.66 µM/kg
[2]; Mus musculus, read-out: ED30
  ED30: 30 mg/kg

## OCCN(CCO)c1nc(N2CCCCC2)c2nc(N(CCO)CCO)nc(N3CCCCC3)c2n1 [DIPYRIDAMOLE]
[1]
  ED50: 143 µmol/kg and 72 mg/kg

## COC(=O)C1=C(C)NC(C)=C(C(=O)OC)C1c1ccccc1[N+](=O)[O-] [NIFEDIPINE]
[3]
  Inhibition: 73.66%
[4]
  Inhibition: 18.28%
[5]
  Inhibition: 41.73%
[1]
  ED50: 6.93 µmol/kg and 2.4 mg/kg
[6]
  Inhibition: 100%
[7]
  Inhibition: 88.35%

## CCOC(=O)C1=C(C)NC(C)=C(C(=O)OC)C1c1cccc([N+](=O)[O-])c1 (stereo not given) [NITRENDIPINE]
[8]
  Beats/min: 190
  Control: 100%
[9]
  Beats/min: 179
  Control: 94%
[10]
  Beats/min: 190
  Control: 100%
[11]
  Beats/min: 185
  Control: 97.5%
[12]
  Beats/min: 153
  Control: 81%

## Clc1ccccc1CN1CCc2sccc2C1 [TICLOPIDINE]
[1]
  ED50: 152 µmol/kg and 40 mg/kg
